Tested on: IFNγ induced CXCL10 and CXCL9 secretion in EpiAirway tissue cultures
Experiment: Inhibition of IFNγ induced chemokines CXCL9 and CXCL10 in human 3D airway cultures
Type: cell-based
Details: 192 h, day 8, ±STDV
Experimental: Assay 7: Inhibition of IFNγ and IL-27 Induced Chemokines CXCL9 and CXCL10 in Human 3D Airway Cultures
EpiAirway tissue cultures were obtained from Mattek (AIR-100). Cultures were derived from asthmatic donors. In a cell culture insert, human derived tracheal/bronchial epithelial cells were grown and differentiated on a porous membrane support, allowing an air-liquid interface with warmed culture medium below the cells and a gaseous test atmosphere above. Tissues were cultured in maintenance media (Mattek, AIR-100-MM) in a 37° C., 5% CO2 humidified incubator. Four donors were tested. On Day 0, tissue cultures were treated with test compounds at 10 μM, 1 μM and/or 0.1 μM. Compounds were diluted in dimethyl sulfoxide (DMSO, Sigma) to a final concentration of 0.1%. DMSO at 0.1% was used as a vehicle control. Test compounds were incubated with cultures for 1 hour at 37° C., 5% CO2, followed by the addition of pre-warmed media containing IFNγ (R&D Systems) or IL-27 (R&D Systems) at a final concentration at 100 ng/ml. Tissue cultures were maintained for 8 days. Media was replaced every 2 days with fresh media containing compounds and IFNγ or IL-27. […] Data is expressed as % Inhibition+/−standard deviation (±STDV). Percent inhibition was determined by compound inhibitory potency against IFNγ or IL-27 induced CXCL10 or CXCL9 secretion compared to vehicle treated cells. […]

## CCc1cc(O)c(F)cc1-c1ccc2c(-c3nc4c([nH]3)CN(C(C)C)[C@H](C(=O)N3CC(N(C)C)C3)C4)n[nH]c2c1 [Example 2, (S)-(3-(dimethylamino)azetidin-1-yl)(2-(6-(2-ethyl-5-fluoro-4-hydroxyphenyl)-1H-indazol-3-yl)-5-isopropyl-4,5,6,7-tetrahydro-3H-imidazo[4,5-c]pyridin-6-yl)methanone]
  inhibition at 1 µM: 65%
